The text below walks through data of patent US11903931B2, “Salts of selective estrogen receptor degraders” (InventisBio Co., Ltd., priority 2018, dated 2024).

Counter-ions that a name gives are not always drawn.

The test system of one series is ER+ breast cancer cells. The following applies: cited from earlier work.
Series [1] can be described thus: Solubility test in pH 1.2 or pH 6.8 buffer (saturated solutions, HPLC; remaining solids by XRPD). The settings on record: for XRPD analysis of remaining solids after solubility test: 24 hours, medium not stated; for XRPD patterns at 24 h: remaining solid. Type of series: physicochemical. The procedure: For solubility test: About 20 mg of Compound FA, L-lysine salt and meglumine salt (Form I) were weighed into vials, added 3 mL of pH1.2 or pH 6.8 buffer to make saturated solutions. All suspensions were kept shaking with 200 rpm at room temperature for up to 24 hours. […] At 24 hours, remaining solids were collected and determined by XRPD.

The conditions of series [2]: compared with fulvestrant, GDC-0810 and AZD9496; cited from earlier work.
A short description of series [3]: Dynamic moisture sorption analysis (DVS). It is filed as physicochemical. The procedure: Dynamic moisture sorption analysis (DVS): DVS was determined using IGAsorp (Hiden Isochema, UK). The sample was tested at a targeted RH (relative humidity) of 10 to 90% full cycle in step mode. The analysis was performed in 10% RH increments.
Series [4] is described as follows: Solid stability test at 40° C./75% RH for 8 days (HPLC, XRPD). It is filed as physicochemical. The following applies: for Physical and chemical stability / XRPD patterns after storage: 40° C./75% RH for 8 days; for Purity at 8 days / Purity at 0 day: HPLC; for Purity at 8 days: after 40° C./75% RH for 8 days; for Purity at 0 day: start of stability test. The protocol:
HPLC ANALYSIS: a representative HPLC method is shown below, which can be used, for example, to analyze the purity, solubility, and stability of the salts herein.
For stability test: About 20 mg of Compound FA, L-lysine salt and meglumine salt (Form I) were weighed into vials, and put at the condition of 40° C./75% RH for 8 days. At 0 and 8 days, the solid sample was dissolved using acetonitrile/water (1/1) to make a solution with the concentration of 0.2 mg/mL. Sample solutions were analyzed by HPLC and solid samples were examined by XRPD.

Series [5] in a line: Meglumine salt form interconversion study (slurry in IPA or water, XRPD). It is filed as physicochemical. The settings on record: for Final crystal form: Water. The procedure: Interconversion study: Interconversion studies were carried out by mixing the same amount of different form solids in IPA or water, respectively. Suspensions were kept stirring at room temperature and 60° C. for several days, during which suspensions were filtrated and analyzed by XRPD.

Series [6] in a line: Solid stability test of Form I at 25° C./92.5% RH for 10 days (XRPD). It is filed as physicochemical. The protocol: Solid stability test of Form I at 92.5% RH for 10 days: About 20 mg of meglumine salt Form I was put into the condition of 25° C./92.5% RH for 10 days. At 10 days, the sample was analyzed by XRPD.
A short description of series [7]: Physical treatment (grinding) of Form I. It is filed as physicochemical. The following applies: grinded for 2 min and 5 min. The procedure: Physical treatment of Form I: Form I of meglumine salt was grinded for 2 min and 5 min. After grinding, the crystallinity declined, but the crystal form was still Form I.
The target in the next series is T1, ER (Homo sapiens, UniProt P03372).
T1 sequence (P03372 1-595): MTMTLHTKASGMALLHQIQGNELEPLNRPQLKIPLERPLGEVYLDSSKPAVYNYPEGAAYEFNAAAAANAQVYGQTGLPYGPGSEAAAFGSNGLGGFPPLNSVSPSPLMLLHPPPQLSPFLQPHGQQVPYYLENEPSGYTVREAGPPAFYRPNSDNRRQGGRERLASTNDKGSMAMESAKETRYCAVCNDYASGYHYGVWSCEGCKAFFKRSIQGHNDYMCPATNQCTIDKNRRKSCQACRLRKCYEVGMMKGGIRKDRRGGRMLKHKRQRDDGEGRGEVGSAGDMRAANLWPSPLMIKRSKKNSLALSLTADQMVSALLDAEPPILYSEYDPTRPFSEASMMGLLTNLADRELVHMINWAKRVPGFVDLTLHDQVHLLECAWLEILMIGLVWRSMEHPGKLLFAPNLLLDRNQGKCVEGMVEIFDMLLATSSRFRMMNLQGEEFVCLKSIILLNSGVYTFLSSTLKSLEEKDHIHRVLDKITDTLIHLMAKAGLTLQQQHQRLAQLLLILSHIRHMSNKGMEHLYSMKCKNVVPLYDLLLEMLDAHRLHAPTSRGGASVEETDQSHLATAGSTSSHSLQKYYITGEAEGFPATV
The settings on record: intramuscular injection monthly; cited from earlier work.

As for `C[C@@H]1Cc2c([nH]c3ccccc23)[C@@H](c2c(Cl)cc(/C=C/C(=O)O)cc2Cl)N1CC(C)(C)F` [Compound FA, (E)-3-(3,5-dichloro-4-((1R,3R)-2-(2-fluoro-2-methylpropyl)-3-methyl-2,3,4,9-tetrahydro-1H-pyrido[3,4-b]indol-1-yl)phenyl)acrylic acid], the “Growth of ER+ breast cancer cells” value in the series on ER+ breast cancer cells is reported as “inhibited the growth”. Besides, the “XRPD analysis of remaining solids after solubility test” value in series [1] is recorded as “became lower”. Also, in series [1] (pH 1.2 buffer), the “Stability in pH 1.2 buffer solution (HPLC)” value is recorded as “unstable” and the “XRPD patterns at 24 h” value is “Low crystallinity”. Moreover, in [1] (pH 6.8 buffer), the “XRPD patterns at 24 h” value was “Low crystallinity”. In addition, the Human hepatocyte clearance result in series [2] is recorded as “better human hepatocyte clearance”. Moreover, in [3], the “XRPD pattern after DVS test” value is “didn't change”. Further, the “Moisture adsorbed (DVS)” value in series [3] (at 80% RH) is listed as “about 1.7%”. Moreover, in series [4], the “Physical and chemical stability” value is “physically and chemically stable”; the “XRPD patterns after storage” value is listed as “not changed”; the “Purity at 8 days” value is on record as 96.31 Area %; the “Purity at 0 day” value turned out to be 98.02 Area %.

Take `C[C@@H]1Cc2c([nH]c3ccccc23)[C@@H](c2c(Cl)cc(/C=C/C(=O)O)cc2Cl)N1CC(C)(C)F` [Meglumine salt, Meglumine (E)-3-(3,5-dichloro-4-((1R,3R)-2-(2-fluoro-2-methylpropyl)-3-methyl-2,3,4,9-tetrahydro-1H-pyrido[3,4-b]indol-1-yl)phenyl)acrylate]: the Final crystal form result in series [5] (25° C.) is given as “Dihydrate”. Moreover, the Final crystal form result in series [5] (60° C.) was “Form I”. The “Relative stability of crystal forms” value in [5] (in water at 60° C. and IPA) was “most stable crystal form”. Also, in series [1], the “XRPD analysis of remaining solids after solubility test” value is “became lower”. Also, in series [1] (pH 1.2 buffer), the “Stability in pH 1.2 buffer solution (HPLC)” value was “unstable” and the “XRPD patterns at 24 h” value was “No change”. In addition, the “XRPD patterns at 24 h” value in [1] (pH 6.8 buffer) is listed as “Low crystallinity”. In series [4], the “Physical and chemical stability” value was “physically and chemically stable”; the “XRPD patterns after storage” value is reported as “not changed”; the “Purity at 8 days” value turned out to be 99.66 Area %; the “Purity at 0 day” value was determined as 99.68 Area %. For the same compound, the “Crystal form after storage (XRPD)” value in series [6] is on record as “remained unchanged”. In addition, in series [7], the “Crystal form after grinding” value is reported as “still Form I” and the Crystallinity after grinding result is “declined”.

For the compound `C[C@]12CC[C@@H]3c4ccc(O)cc4C[C@@H](CCCCCCCCC[S+]([O-])CCCC(F)(F)C(F)(F)F)[C@H]3[C@@H]1CC[C@@H]2O` (stereo partly drawn) [fulvestrant], the “ER degradation in clinical samples” value on ER is recorded as around 50%.
